How the values were obtained:
[1] = test system: human cervical carcinoma cell line HeLa; experiment: MTS cytotoxicity assay, HeLa; format: cell-based; details: for IC50: Homo sapiens, HeLa, 48 h treatment
Excerpt: (§1) To investigate the relationship between anticancer activity and tyrosine kinase inhibitory activity, these compounds were further evaluated for in vitro cytotoxicity against five cancer cell lines (human cervical carcinoma cell line HeLa, human breast carcinoma cell line MCF-7, human liver carcinoma cell line HepG2, human tongue carcinoma cell line SCC-15, and human lung carcinoma A549) using MTS assay. Indo 5 was also used as a reference compound.
(§2) The five types of human cancer cell lines (HeLa, HepG2, MCF-7, SCC-15, and A549) were cultured aseptically using Dulbecco’s modified Eagle’s medium (DMEM) supplemented with 10% (v/v) fetal bovine serum (FBS) and penicillin (100 units mL^−1)/streptomycin ([…]), at pH 7.2 and 5% CO2 humidified atmosphere at 37 °C. After attaining 80% confluence, the cells were trypsinized with 0.25 trypsin–EDTA and diluted with media to a fixed number of cells.
(§3) Cytotoxic activity was assessed using the standard MTS method by using triplicate assay. The cells were seeded into 96-well plates containing the medium at the density of 4000–6000 cells/mL (100 μL/well). The compounds were dissolved in DMSO to the concentration of 100 mM and diluted in a culture medium to the concentrations needed. After 24 h, the cultured cells were treated with concentrations of synthesized compounds (3.125 μM to 100 μM for tumor cells) for 48 h. After 48 h of incubation, the supernatant was replaced by fresh medium (100 μL/well) and 10 μL MTS reagent ([3-(4,5-dimethylthiazol-2-yl)-5-(3-carboxymethoxyphenyl)-2-(4-sulfophenyl)-2H-tetrazolium, inner salt]) was added to each well. The plate was further incubated for 3 h at 37 °C in 5% CO2. The optical absorbance in individual wells was determined at 492 nm using a microplate reader. The inhibition rates were calculated by the following formula: Inhibition rate (%) = (ODnegative control − ODsample)/(ODnegative control − ODblank) × 100%
(§4) IC50 was calculated using GraphPad Prism Software (GraphPad Prism 5, La Jolla, CA, USA). For each concentration, at least three wells were performed to calculate the average parameter.

[2] = test system: human liver carcinoma cell line HepG2; experiment: MTS cytotoxicity assay, HepG2; format: cell-based; details: for IC50: Homo sapiens, HepG2, 48 h treatment
Excerpt: as §1, §2, §3, §4

[3] = test system: five human cancer cell lines (HeLa, HepG2, MCF-7, SCC-15, and A549); experiment: MTS cytotoxicity assay, across the cancer cell line panel; format: cell-based; details: for IC50: Homo sapiens, average over the cancer cell lines, read-out: average IC50 value (antitumor potential); for anticancer / antiproliferative activity over the cell line panel, in words: MTS, Indo 5 as reference
Excerpt: as §1, §2, §3, §4

[4] = test system: human lung carcinoma A549; experiment: MTS cytotoxicity assay, A549; format: cell-based; details: Homo sapiens, A549, 48 h treatment
Excerpt: as §1, §2, §3, §4

[5] = test system: human breast carcinoma cell line MCF-7; experiment: MTS cytotoxicity assay, MCF-7; format: cell-based; details: for IC50: Homo sapiens, MCF7, 48 h treatment
Excerpt: as §1, §2, §3, §4

[6] = molecular target: tyrosine kinase; experiment: Tyrosine kinase inhibitory activity assay (self-made ELISA kit); format: biochemical; details: tyrosine kinase tissue extract, 37 °C 30 min
Protocol: The 16 designed compounds were first evaluated for tyrosine kinase inhibitory activity using ELISA assay. Indo 5 was used as a reference compound. The kit was self-made and is a very effective and economical method for preliminary tyrosine kinase inhibitory activity evaluation.
The tyrosine kinase inhibitory activity assay was performed as described in the literature. Details of the experimental procedures are presented in Supplementary Materials associated with this article. The IC50 was calculated using GraphPad Prism Software (GraphPad Prism 5, La Jolla, CA, USA). For each concentration, at least three wells were performed to calculate the average parameter.
100μL to each well. The plate was covered with its lid, and incubated at 4℃ overnight (10-12 hours). Then it was washed with 200μL elution buffer once, and dried at 37℃ for 2 h. After that, it was washed with 10mM PBS once, dried at room temperature, and then stored at 4℃ […]
2.1.5. Groups: Blank control: 60μL 1×tyrosine kinase buffer + 50μL 1×tyrosine kinase buffer containing ATP; Negative control: 10μL 1×tyrosine kinase buffer + 50μL 1×tyrosine kinase buffer containing tissue extract + 50μL 1×tyrosine kinase buffer containing ATP; Positive control: 10μL 1×tyrosine kinase buffer containing L029 + 50μL 1×tyrosine kinase buffer containing tissue extract + 50μL 1×tyrosine kinase buffer containing ATP; Vehicle control: 10μL 1×tyrosine kinase buffer containing DMSO + 50μL 1×tyrosine kinase buffer containing tissue extract + 50μL 1×tyrosine kinase buffer containing ATP; Compounds to be screened: 10μL 1×tyrosine kinase buffer containing compounds to be tested + 50μL 1× tyrosine kinase buffer containing tissue extract + 50μL 1×tyrosine kinase buffer containing ATP. (First, L029 and the compounds were allowed to interact with the tyrosine kinase tissue extract at room temperature for 10 min in advance, and did the same to the Blank control and the Vehicle control, then 50μL 1×tyrosine kinase buffer containing ATP was added to […]
2.1.6. Tyrosine kinase inhibitory activity assay: 1×tyrosine kinase buffer was prepared by evenly mixing 1 mL 10× tyrosine kinase buffer with 9 mL DDW. The tissue extract was diluted with 1×tyrosine kinase buffer appropriately, mixed with it gently and evenly, and placed on ice. ATP stock solution was mixed with 1×tyrosine kinase buffer at the final concentration of 3mM , and placed on ice. The microplate was added in respective wells with the groups formulated as above, covered with the lid, and incubated at 37℃ for 30 min. The microplate was washed with 200μL elution buffer and tapped until the residual buffer was removed, and this procedure was repeated for five times. To each well, 100μL antibody diluent (antibody elution buffer diluted at a ratio of 1:2000) was added. The microplate was covered with the lid, and incubated at room temperature for 30 min. OPD solution was prepared by addition of 4 mg OPD into a mixture of 4.86 mL 0.1 mol/L citric acid solution and 5.14 mL 0.2 mol/L Na2HPO4 solution, followed by addition of 50μL 30% H202 to allow for complete dissolution, and then was protected from light. The antibody solution was […]
removed. The microplate was washed with 200μL elution buffer and tapped until the residual buffer was removed, and this procedure was repeated for five times. 100μL freshly prepared OPD was added, and reacted at room temperature light tight for precisely 7 min. Negative […]
100μL 2.5 N H2SO4 was added to terminate the reaction. OD
2.1.7. Sample screening: Samples were screened preliminarily by using triplicate assay. The effect of the samples on tyrosine kinase inhibitory activity was tested, and the inhibition rate was calculated. Inhibition rate (%)=(ODnegative control – ODsample) / (ODnegative control* – ODblank) × 100%; *While calculating inhibition rate of positive drugs, ODnegative control in the equation was replaced with ODvehicle control to exclude the influence of DMSO on tyrosine kinase activity. […]
2. S. Praveen Kumar, Jiri Gut, Rita C. […]

[7] = test system: human tongue carcinoma cell line SCC-15; experiment: MTS cytotoxicity assay, SCC-15; format: cell-based; details: for IC50: Homo sapiens, SCC-15, 48 h treatment
Excerpt: as §1, §2, §3, §4

melting point [°C]	IC50 [6] [µM]	SMILES	IC50 [1] [µM]	activity against the HepG2 cell line, in words [2]	IC50 [2] [µM]	IC50 [3] [µM]	anticancer / antiproliferative activity over the cell line panel, in words [3]	IC50 [4] [µM]	activity against the MCF-7 cell line, in words [5]	IC50 [5] [µM]	activity against the SCC-15 cell line, in words [7]	IC50 [7] [µM]	activity against the HeLa cell line, in words ([1]; Indo 5 as reference)
195 to 196	1.34 ± 0.03	O=C1Nc2ccccc2/C1=C/[S+]([O-])Cc1ccc(Br)cc1 (stereo not shown) [Compound 6j, (Z)-3-(((4-Bromobenzyl)sulfinyl)methylene)indolin-2-one]	24.1 ± 0.52	considerable cytotoxic activity	36.9 ± 0.49	< 40	comparable antiproliferative activity against four cancer cell lines compared with compound Indo 5	44 ± 1.89	good antitumor activity	30.77 ± 0.29	considerable cytotoxic activity	34.9 ± 0.34	
200 to 201	2.69 ± 0.29	O=C1Nc2ccc(Br)cc2/C1=C/[S+]([O-])Cc1ccccc1 (stereo not shown) [Compound 6o, (Z)-3-((Benzylsulfinyl)methylene)-5-bromoindolin-2-one]	18.2 ± 0.66	considerable cytotoxic activity	54.4 ± 0.88	< 40	comparable antiproliferative activity against four cancer cell lines compared with compound Indo 5	54.9 ± 0.66	good antitumor activity	32.3 ± 0.77	considerable cytotoxic activity	28.6 ± 1.58	stronger activity than Indo 5

Reference: PMC6150246, “Design, Synthesis and Preliminary Biological Evaluation of Novel Benzyl Sulfoxide 2-Indolinone Derivatives as Anticancer Agents” (Molecules : A Journal of Synthetic Chemistry and Natural …, 2017)
